Measured values taken from patent publication US6307014A (priority 1998, dated 2001).

Experiments:
[1] = tested on: young mice; conditions: mouse, in vivo
[2] = tested on: presynaptic Ca2+ current; type: cell-based, Aplysia californica
[3] = tested on: postsynaptic acetylcholine (ACh) receptors; type: cell-based, Aplysia californica
[4] = tested on: cholinergic synapse of the buccal ganglion; type: cell-based, Aplysia californica

Gla Cys Cys Gla Asp Gly BrW Cys Cys Thr Ala Ala OHP [P11.1]
dampening of the action potential [1]: about 50% | presynaptic Ca2+ current, % of the control value [2]: 70% | distribution of mean amplitudes of miniature postsynaptic currents with respect to mean amplitude of the LDIPSC [3]: identical to control values | effect on postsynaptic acetylcholine (ACh) receptors [3]: no effect | amplitude of the postsynaptic response (IPSC) evoked by a presynaptic action potential, % of the initial value [4]: 40% | reduction in the number of released quanta [4]: 60%
